Experimental data published in ChEMBL document CHEMBL3885861, “Open TG-GATES”.

Organism: Rattus norvegicus
Test: Open TG-GATES - Regimen: Single
Type: toxicity, organism-based, Sprague-Dawley
Design: regimen Single, gender Male, age 6 weeks
Conditions: in vivo, po, 20 mg/kg, route gavage, dose level Low; for APTT / Bas / Eos / Fbg / Hb / Ht / Lym / MCH / MCHC / MCV / Mono / Neu / PT / Plat / RBC / Ret / WBC: tissue Blood; for KIDNEY_L / KIDNEY_R / KIDNEY_TOTAL: tissue Kidney; for LIVER: tissue Liver; for A/G / ALP / ALT / AST / BUN / CRE / Ca / Cl / DBIL / GLC / IP / K / LDH / Na / PL / RALB / TBIL / TC / TG / TP / gamma-GTP: tissue Plasma

## CCc1oc2ccccc2c1C(=O)c1cc(Br)c(O)c(Br)c1 [BENZBROMARONE]
3 h
  TERMINAL_BW: 212.8 g
  APTT: 16.3 s
  Bas: 0%
  Eos: 0.6%
  Fbg: 237.6 mg/dL
  Hb: 13.8 g/dL
  Ht: 41%
  Lym: 81.2%
  MCH: 21.7 pg
  MCHC: 33.6%
  MCV: 64.6 fL
  Mono: 8.4%
  Neu: 9.8%
  PT: 11.8 s
  Plat: 106.4 x10_4/uL
  RBC: 634.6 x10_4/ul
  Ret: 7.7%
  WBC: 91.2 x10_2/uL
  KIDNEY_L: 0.9 g
  KIDNEY_R: 1 g
  KIDNEY_TOTAL: 1.9 g
  LIVER: 10.1 g
  A/G: 2.3
  ALP: 902 IU/L
  ALT: 33.6 IU/L
  AST: 62 IU/L
  BUN: 11.2 mg/dL
  CRE: 0.6 mg/dL
  Ca: 10.7 mg/dL
  Cl: 103.4 meq/L
  DBIL: 0.034 mg/dL
  GLC: 195.4 mg/dL
  IP: 9.5 mg/dL
  K: 4.8 meq/L
  LDH: 81.6 IU/L
  Na: 139 meq/L
  PL: 147 mg/dL
  RALB: 3.9 g/dL
  TBIL: 0.3 mg/dL
  TC: 79.6 mg/dL
  TG: 81.2 mg/dL
  TP: 5.6 g/dL
  gamma-GTP: 1 IU/L
6 h
  TERMINAL_BW: 212.2 g
  APTT: 16.1 s
  Bas: 0%
  Eos: 1.2%
  Fbg: 228 mg/dL
  Hb: 13.8 g/dL
  Ht: 41.2%
  Lym: 79.4%
  MCH: 21.6 pg
  MCHC: 33.5%
  MCV: 64.5 fL
  Mono: 7%
  Neu: 12.6%
  PT: 12.1 s
  Plat: 113.8 x10_4/uL
  RBC: 639.4 x10_4/ul
  Ret: 7.7%
  WBC: 111.3 x10_2/uL
  KIDNEY_L: 1 g
  KIDNEY_R: 1 g
  KIDNEY_TOTAL: 2 g
  LIVER: 9.9 g
  A/G: 2.2
  ALP: 710.4 IU/L
  ALT: 28.8 IU/L
  AST: 59.4 IU/L
  BUN: 11.2 mg/dL
  CRE: 0.4 mg/dL
  Ca: 10.5 mg/dL
  Cl: 103.2 meq/L
  DBIL: 0.002 mg/dL
  GLC: 183 mg/dL
  IP: 9.6 mg/dL
  K: 5.1 meq/L
  LDH: 90 IU/L
  Na: 138.2 meq/L
  PL: 136.4 mg/dL
  RALB: 3.8 g/dL
  TBIL: 0.4 mg/dL
  TC: 75 mg/dL
  TG: 75.4 mg/dL
  TP: 5.6 g/dL
  gamma-GTP: 1 IU/L
9 h
  TERMINAL_BW: 210.1 g
  APTT: 15.6 s
  Bas: 0%
  Eos: 1%
  Fbg: 234.6 mg/dL
  Hb: 13.8 g/dL
  Ht: 40.9%
  Lym: 84.2%
  MCH: 22.1 pg
  MCHC: 33.8%
  MCV: 65.5 fL
  Mono: 6.2%
  Neu: 8.8%
  PT: 12.2 s
  Plat: 113.6 x10_4/uL
  RBC: 625.2 x10_4/ul
  Ret: 7.6%
  WBC: 103.5 x10_2/uL
  KIDNEY_L: 1 g
  KIDNEY_R: 1 g
  KIDNEY_TOTAL: 1.9 g
  LIVER: 9.3 g
  A/G: 2.1
  ALP: 840.2 IU/L
  ALT: 29.6 IU/L
  AST: 60 IU/L
  BUN: 10 mg/dL
  CRE: 0.5 mg/dL
  Ca: 10.1 mg/dL
  Cl: 104.2 meq/L
  DBIL: 0.008 mg/dL
  GLC: 194.4 mg/dL
  IP: 10.5 mg/dL
  K: 4.8 meq/L
  LDH: 86.6 IU/L
  Na: 138.4 meq/L
  PL: 119.4 mg/dL
  RALB: 3.8 g/dL
  TBIL: 0.4 mg/dL
  TC: 67.8 mg/dL
  TG: 44 mg/dL
  TP: 5.7 g/dL
  gamma-GTP: 1 IU/L
24 h
  TERMINAL_BW: 225.2 g
  APTT: 16.5 s
  Bas: 0%
  Eos: 1.6%
  Fbg: 229 mg/dL
  Hb: 13.9 g/dL
  Ht: 41.3%
  Lym: 78.2%
  MCH: 21.8 pg
  MCHC: 33.7%
  MCV: 64.8 fL
  Mono: 7.8%
  Neu: 13%
  PT: 12.1 s
  Plat: 112.8 x10_4/uL
  RBC: 636.8 x10_4/ul
  Ret: 7.2%
  WBC: 103.7 x10_2/uL
  KIDNEY_L: 1 g
  KIDNEY_R: 1 g
  KIDNEY_TOTAL: 2 g
  LIVER: 11.3 g
  A/G: 2
  ALP: 915.4 IU/L
  ALT: 37 IU/L
  AST: 62.6 IU/L
  BUN: 18.6 mg/dL
  CRE: 0.6 mg/dL
  Ca: 10.5 mg/dL
  Cl: 105.2 meq/L
  DBIL: 0.04 mg/dL
  GLC: 184.2 mg/dL
  IP: 7.8 mg/dL
  K: 5.4 meq/L
  LDH: 105.4 IU/L
  Na: 138.4 meq/L
  PL: 161.2 mg/dL
  RALB: 4 g/dL
  TBIL: 0.3 mg/dL
  TC: 83.2 mg/dL
  TG: 131 mg/dL
  TP: 6 g/dL
  gamma-GTP: 1.4 IU/L
